Assay results reported in patent publication US20220064146A1, “KINASE INHIBITOR COMPOUNDS AND COMPOSITIONS AND METHODS OF USE” (ICAHN SCHOOL OF MEDICINE AT MOUNT SINAI, priority 2018, published 2022).

These compounds were tested against T1, DYRK1/DYRK1A (Homo sapiens, UniProt Q13627) (assay: DYRK1/DYRK1A IC50 assay (Reaction Biology Corp.)). Conditions: DYRK1/DYRK1A assay from Reaction Biology Corp.; NI: No inhibition.
T1 construct: purchased Reaction Biology Corp. (assay service)
Assay type: biochemical

Structure (SMILES)	IC50
O=c1[nH]c2ccc(-c3cnc(NCCCc4ccccc4)nc3)cc2[nH]1 [Compound 29l, 5-(2-((3-Phenylpropyl)amino)pyrimidin-5-yl)-1H-benzo[d]imidazol-2(3H)-one]	34 nM
O=c1[nH]c2ccc(-c3cnc(NCc4cccs4)nc3)cc2[nH]1 [Compound 51b, 5-(2-((Thiophen-2-ylmethyl)amino)pyrimidin-5-yl)-1H-benzo[d]imidazol-2(3H)-one]	32.7 nM
COc1cccc(Nc2ncc(-c3ccc4[nH]c(=O)[nH]c4c3)cn2)c1 [Compound 48h, 5-(2-((3-Methoxyphenyl)amino)pyrimidin-5-yl)-1H-benzo[d]imidazol-2(3H)-one]	23.5 nM
CC(C)n1c(=O)[nH]c2ccc(-c3cnc(NCc4ccccc4)nc3)cc21 [Compound 57b, 6-(2-(Benzylamino)pyrimidin-5-yl)-1-isopropyl-1H-benzo[d]imidazol-2(3H)-one]	4280 nM
C[C@@H](Nc1ncc(-c2ccc3[nH]c(=O)[nH]c3c2)cn1)c1ccccc1 [Compound 60a, (R)-5-(2-((1-Phenylethyl)amino)pyrimidin-5-yl)-1H-benzo[d]imidazol-2(3H)-one]	499 nM
O=c1[nH]c2ccc(-c3cnc(NCc4ccco4)nc3)cc2[nH]1 [Compound 51a, 5-(2-((Furan-2-ylmethyl)amino)pyrimidin-5-yl)-1H-benzo[d]imidazol-2(3H)-one]	73.2 nM
CCn1c(=O)[nH]c2ccc(-c3cnc(NCc4ccccc4)nc3)cc21 [Compound 57a, 6-(2-(Benzylamino)pyrimidin-5-yl)-1-ethyl-1H-benzo[d]imidazol-2(3H)-one]	243 nM
